Activity calls are given as the source filed them. The calls are words filed in the database; no cut-off is given here.
Assays:
[1] = molecular target: T1, PPAR alpha/gamma (Homo sapiens) (UniProt P37231+Q07869); assay: Agonist activity at PPARalpha/PPARgamma in human AT-MSC cells assessed as upregulation of adiponectin mRNA at 10 uM incubated for 3 days by qRT-PCR analysis; assay type: cell-based; conditions: Adipose tissue derived mesenchymal stem cell, filed as agonist, time 3.0 day
[2] = molecular target: T2, Peroxisome proliferator-activated receptor gamma (Homo sapiens) (UniProt P37231); assay: (§1) Binding affinity to human recombinant PPARgamma by Cheng-Prusoff equation based competitive binding TR-FRET assay; conditions: filed as agonist
T2 sequence (whole entry): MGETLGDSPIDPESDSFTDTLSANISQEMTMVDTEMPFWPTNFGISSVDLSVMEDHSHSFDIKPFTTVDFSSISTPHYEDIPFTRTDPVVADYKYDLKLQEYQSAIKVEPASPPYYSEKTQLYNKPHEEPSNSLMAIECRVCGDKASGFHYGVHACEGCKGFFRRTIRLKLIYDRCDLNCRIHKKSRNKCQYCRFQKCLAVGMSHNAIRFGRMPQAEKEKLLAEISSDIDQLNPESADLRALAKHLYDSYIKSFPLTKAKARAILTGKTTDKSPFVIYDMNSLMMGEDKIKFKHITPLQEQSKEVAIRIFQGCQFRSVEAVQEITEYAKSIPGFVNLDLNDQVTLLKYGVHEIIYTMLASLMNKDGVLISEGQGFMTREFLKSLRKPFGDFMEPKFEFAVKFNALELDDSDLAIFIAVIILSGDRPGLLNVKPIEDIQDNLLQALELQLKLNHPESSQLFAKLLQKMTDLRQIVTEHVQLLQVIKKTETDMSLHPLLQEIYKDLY

[3] = molecular target: T3, Peroxisome proliferator-activated receptor gamma (Homo sapiens, UniProt P37231); assay: as §1
T3 sequence (P37231 whole entry): T2 sequence (whole entry)

[4] = molecular target: T4, Oxysterols receptor LXR-alpha (Homo sapiens) (UniProt Q13133); assay: Binding affinity to human LXRalpha at 30 uM by competitive ligand binding based TR-FRET assay
T4 sequence (whole entry): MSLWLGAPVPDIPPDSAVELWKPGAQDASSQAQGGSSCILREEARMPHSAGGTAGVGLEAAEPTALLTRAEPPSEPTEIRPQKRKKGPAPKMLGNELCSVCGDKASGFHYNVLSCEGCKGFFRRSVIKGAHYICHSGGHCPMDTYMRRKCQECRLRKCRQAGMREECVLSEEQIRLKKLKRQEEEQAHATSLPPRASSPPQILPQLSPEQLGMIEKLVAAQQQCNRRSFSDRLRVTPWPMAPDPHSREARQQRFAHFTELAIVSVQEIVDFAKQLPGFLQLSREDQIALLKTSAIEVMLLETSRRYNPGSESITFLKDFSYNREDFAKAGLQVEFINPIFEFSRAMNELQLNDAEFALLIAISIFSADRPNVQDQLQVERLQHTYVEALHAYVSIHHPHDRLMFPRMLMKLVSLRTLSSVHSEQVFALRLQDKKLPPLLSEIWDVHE

[5] = molecular target: T5, Peroxisome proliferator-activated receptor delta (Homo sapiens) (UniProt Q03181); assay: Binding affinity to human recombinant PPARdelta at 30 uM by competitive binding based TR-FRET assay
T5 sequence (whole entry): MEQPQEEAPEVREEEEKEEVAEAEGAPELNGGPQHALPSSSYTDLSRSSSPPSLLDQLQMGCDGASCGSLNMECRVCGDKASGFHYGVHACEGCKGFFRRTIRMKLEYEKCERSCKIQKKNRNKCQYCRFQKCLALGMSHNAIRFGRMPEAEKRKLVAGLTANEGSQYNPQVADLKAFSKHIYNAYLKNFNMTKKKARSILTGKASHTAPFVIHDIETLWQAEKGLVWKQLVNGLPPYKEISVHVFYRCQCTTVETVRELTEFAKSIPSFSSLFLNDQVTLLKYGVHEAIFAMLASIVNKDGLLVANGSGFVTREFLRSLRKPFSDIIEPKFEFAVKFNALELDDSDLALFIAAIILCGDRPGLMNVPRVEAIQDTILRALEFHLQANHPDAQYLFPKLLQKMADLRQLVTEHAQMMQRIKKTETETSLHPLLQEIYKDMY

[6] = molecular target: T2, Peroxisome proliferator-activated receptor gamma (Homo sapiens); assay: Binding affinity to human recombinant PPARgamma at 30 uM by competitive binding based TR-FRET assay relative to control; conditions: filed as agonist
[7] = test system: Adipose tissue derived mesenchymal stem cell; assay: Induction of adipogenesis in human AT-MSC cells assessed as increase in lipid droplet at 30 uM in IDX medium incubated for 5 days by Oil Red O staining based inverted phase microscopy relative to IDX control; assay type: functional; conditions: time 5.0 day
[8] = Induction of adipogenesis in human AT-MSC assessed as adiponectin secretion at 30 uM in IDX medium incubated for 5 days by ELISA relative to IDX control; assay type: functional, Adipose tissue derived mesenchymal stem cell; conditions: time 5 day
[9] = Induction of adipogenesis in human AT-MSC assessed as adiponectin secretion at 30 uM in IDX medium incubated for 5 days by ELISA (reference value: 100 +/- 15 pg/ml); assay type: functional, Adipose tissue derived mesenchymal stem cell; conditions: time 5 day
NHEK [10] = assay: Inhibition of UVB-induced PGE2 level in human NHEK cells at 10 uM incubated for 24 hrs by ELISA; assay type: functional, cell-based
NHEK [11] = assay: Inhibition of UVB-induced MMP1 mRNA in human NHEK cells at 10 uM incubated for 24 hrs by qRT-PCR analysis; assay type: functional, cell-based
[12] = molecular target: T1, PPAR alpha/gamma (Homo sapiens); assay: Agonist activity at PPARalpha/PPARgamma in human NHEK cells assessed as upregulation of SCD1 mRNA at 10 uM incubated for 3 days by qRT-PCR analysis; assay type: cell-based; conditions: filed as agonist, time 3.0 day

T1 sequence (Q07869 whole entry, looked up, one chain of several): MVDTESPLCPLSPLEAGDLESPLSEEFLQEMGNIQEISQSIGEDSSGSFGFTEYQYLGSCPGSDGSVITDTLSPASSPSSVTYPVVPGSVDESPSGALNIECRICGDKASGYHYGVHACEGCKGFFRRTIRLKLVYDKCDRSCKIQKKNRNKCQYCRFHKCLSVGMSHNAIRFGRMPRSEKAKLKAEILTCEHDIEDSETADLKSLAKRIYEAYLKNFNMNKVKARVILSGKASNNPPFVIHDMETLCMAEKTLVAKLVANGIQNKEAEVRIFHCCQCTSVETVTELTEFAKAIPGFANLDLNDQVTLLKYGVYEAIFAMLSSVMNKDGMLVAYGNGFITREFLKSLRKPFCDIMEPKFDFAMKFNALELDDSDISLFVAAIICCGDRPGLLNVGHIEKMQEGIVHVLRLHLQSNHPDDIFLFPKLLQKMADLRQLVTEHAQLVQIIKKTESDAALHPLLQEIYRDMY

## COc1ccc(OC)c(/C=C/C(=O)OCc2cc(=O)c(O)co2)c1
[1]
  Activity: Active
[2]
  Activity: Dose-dependent effect
[3]
  Ki: 7 µM
[4]
  Activity: inactive
[5]
  Activity: inactive
[6]
  Activity: 77%
[7]
  Activity: Active
[8]
  fold change (FC): 3.83
[9]
  Activity: 383 pg/mL
NHEK [10]
  inhibition: Active
NHEK [11]
  inhibition: Active
[12]
  Activity: Active

From ChEMBL document CHEMBL4673218, “Kojyl cinnamate esters are peroxisome proliferator-activated receptor α/γ dual agonists” (Bioorg Med Chem, 2018)
